Columns and labels:
Assay in all cases: MIC and synergy testing in tryptic soy broth (turbidity reading)
Format in all cases: cell-based
[1] = system: Staphylococcus aureus (DSMZ#799); conditions: 48 hours, 30° C., TSB
Procedure: (§1) The synergism of the biocides combination of the present invention was determined using the method described by Kull, F. C., et. al in Applied Microbiology 9:538-541 (1961). The formula to calculate the synergy index (SI) is Qa/QA+Qb/QB=SI Where • QA=concentration of compound A in ppm, acting alone produced an end point (growth/no growth) • Qa=concentration of compound A in ppm, in the mixture, which produced an end point (growth/no growth) • QB=concentration of compound B in ppm, acting alone produced an end point (growth/no growth) • Qb=concentration of compound B in ppm, in the mixture, which produced an end point (growth/no growth) […]
(§2) • 1. The test was executed with a Hamilton MLStarPlus robot using automated turbidity reading with BioTek Synergy H4 plate reader. • 2. […]
(§3) • The cultures were maintained as glycerol stocks at −80° C. in cryovials, are thawed and then 100 μl spread on MEA (malt extract agar) petri dishes. • The yeast strain plates were incubated at 28° C. for 1-2 days then harvested with buffer pH 5.0. • Based on total viable count results, the inoculum was prepared. • 7. […] Reading of the results was carried out by measuring absorbance at 600 nm for each sample at the beginning of the test (tzero) and after incubation (tendpoint). tendpoint was chosen at 48 hours for bacteria and 72 hours for yeast. […]

[2] = system: Pseudomonas aeruginosa (DSMZ#939); conditions: 48 hours, 30° C., TSB
Procedure: as §1, §2, §3

[3] = system: Candida albicans (DSMZ#1386); conditions: 72 hours, 30° C., TSB
Procedure: as §1, §2, §3

Compound: CCCCNC(=O)OCC#CI [IPBC, 3-Iodo-2-propynyl-butylcarbamate]
- MIC, single biocide [1]: 21.6 ppm
- MIC, single biocide [2]: 1400.0 ppm
- MIC, single biocide [3]: 6.6 ppm

From US10674729B2, “Synergistic combination of 3-IODO-2-propynyl-butylcarbamate and diamine” (priority 2016, dated 2020)
